What all share (type): functional
For assay [1], the system named is Mycobacterium tuberculosis. Briefly: Antimycobacterial activity against isoniazid and rifampicin-resistant Mycobacterium tuberculosis MTB411 clinical isolate by MTT assay. (Tetrazolium assays rely on reduction of a dye to a coloured formazan, in cell work by metabolically active cells.)
Assay [2] deals with Mycobacterium tuberculosis. Briefly: Antimycobacterial activity against isoniazid and rifampicin-resistant Mycobacterium tuberculosis MTB4000 clinical isolate by MTT assay.
Assay [3] has as its system Mycobacterium tuberculosis. Briefly: Antimycobacterial activity against isoniazid-resistant Mycobacterium tuberculosis H37Rv ATCC 35822 by MTT assay.
For assay [4], the system named is Mycobacterium tuberculosis. Briefly: Antimycobacterial activity against isoniazid and rifampicin-resistant Mycobacterium tuberculosis UT544 clinical isolate by MTT assay.
Assay [5] has as its system Mycobacterium tuberculosis. Nature of the assay: Antimycobacterial activity against isoniazid and rifampicin-resistant Mycobacterium tuberculosis MTB2556 clinical isolate by MTT assay.
Assay [6] relates to Mycobacterium tuberculosis. Briefly: Antimycobacterial activity against isoniazid and rifampicin-resistant Mycobacterium tuberculosis MTB985 clinical isolate by MTT assay.
Assay [7] relates to Mycobacterium tuberculosis. Nature of the assay: Antimycobacterial activity against streptomycin-resistant Mycobacterium tuberculosis H37Rv ATCC 35820 by MTT assay.
Assay [8] relates to Mycobacterium tuberculosis. Nature of the assay: Antimycobacterial activity against ethambutol-resistant Mycobacterium tuberculosis H37Rv ATCC 35837 by MTT assay.
Assay [9] relates to Mycobacterium tuberculosis. Briefly: Antimycobacterial activity against rifampicin-resistant Mycobacterium tuberculosis H37Rv ATCC 35838 by MTT assay.

≈ marks a conversion by molar mass, not a printed value.

The MIC is the least concentration at which growth counts as inhibited. Read a high MIC as a less susceptible organism. In the case of `Cc1nn(-c2ccccc2)c2nc3c(c(-c4ccccc4)c12)C(=O)C(=O)c1ccccc1-3`, the MIC is 4 µg/mL (≈ 9.63 µM) in [1]; not above 2 µg/mL in [2]; not above 2 µg/mL in assay [3]; not above 2 µg/mL in assay [4]; not above 2 µg/mL in assay [5]; not above 2 µg/mL in assay [6]. In addition, the MIC in [7], in assay [8] and in assay [9] was not above 2 µg/mL each time.

Take `Cc1ccc(-c2c3c(nc4c2c(C)nn4-c2ccccc2)-c2ccccc2C(=O)C3=O)cc1`: the MIC is 4 µg/mL (≈ 9.31 µM) in assay [1]; not above 2 µg/mL in [2]; not above 2 µg/mL in [3]; not above 2 µg/mL in assay [4]; not above 2 µg/mL in assay [5]; not above 2 µg/mL in assay [6]. Further, the MIC is not above 2 µg/mL in [7], 4 µg/mL (≈ 9.31 µM) in assay [8] and 4 µg/mL (≈ 9.31 µM) in assay [9].

With `COc1cc(-c2c3c(nc4c2c(C)nn4-c2ccccc2)-c2ccccc2C(=O)C3=O)cc(OC)c1OC`, the MIC in [1], in [2], in assay [3], in assay [4], in assay [5] and in assay [6] was more than 32 µg/mL each time. Also, the MIC in assay [7], in assay [8] and in assay [9] was more than 32 µg/mL throughout.

As for `Cc1nn(-c2ccccc2)c2nc3c(c(-c4ccc(Cl)cc4)c12)C(=O)C(=O)c1ccccc1-3`, the MIC in [1], in [2], in [3], in assay [4], in assay [5] and in assay [6] was more than 32 µg/mL in each case. Also, the MIC in [7], in assay [8] and in assay [9] was more than 32 µg/mL throughout.

For the molecule `Cc1nn(-c2ccccc2)c2nc3c(c(-c4ccc(F)cc4)c12)C(=O)C(=O)c1ccccc1-3`, the MIC in assay [1] is 4 µg/mL (≈ 9.23 µM); in assay [2], not above 2 µg/mL; in [3], not above 2 µg/mL; in assay [4] it was not above 2 µg/mL; in assay [5], not above 2 µg/mL; in assay [6], not above 2 µg/mL. Besides, the results for the MIC in assay [7], in assay [8] and in assay [9] were not above 2 µg/mL, 4 µg/mL (≈ 9.23 µM) and 4 µg/mL (≈ 9.23 µM), respectively.

For `O=C1C(=O)c2ccccc2C2=C1C(c1ccccc1)c1c(-c3ccccc3)n[nH]c1N2` (stereo not given), the MIC in assay [1], in assay [2], in assay [3], in assay [4], in assay [5] and in assay [6] was more than 32 µg/mL each time. Further, the MIC in assay [7], in assay [8] and in assay [9] was more than 32 µg/mL each time.

Take `Cc1ccc(C2C3=C(Nc4[nH]nc(-c5ccccc5)c42)c2ccccc2C(=O)C3=O)cc1` (stereo not given): the minimum inhibitory concentration (MIC) in [1], in assay [2], in assay [3], in assay [4], in [5] and in assay [6] was more than 32 µg/mL throughout. For the same molecule, the MIC in [7], in [8] and in [9] was more than 32 µg/mL throughout.

On to `COc1ccc(C2C3=C(Nc4[nH]nc(-c5ccccc5)c42)c2ccccc2C(=O)C3=O)cc1` (stereo not given), for which the MIC in assay [1], in [2], in assay [3], in assay [4], in assay [5] and in assay [6] was more than 32 µg/mL in each case. The MIC in [7], in [8] and in assay [9] was more than 32 µg/mL each time.

Take `Cc1ccc(-c2n[nH]c3c2C(c2ccccc2)C2=C(N3)c3ccccc3C(=O)C2=O)cc1` (stereo not given): the minimal inhibitory concentration (MIC) in assay [1], in [2], in assay [3], in [4], in assay [5] and in [6] was 16 µg/mL (≈ 38.3 µM) each time. Besides, the MIC in assay [7] came out at 16 µg/mL (≈ 38.3 µM); in [8], 16 µg/mL (≈ 38.3 µM); in assay [9] it was 4 µg/mL (≈ 9.58 µM).

Take `O=C1C(=O)c2ccccc2C2=C1C(c1ccccc1)c1c(-c3ccc(Cl)cc3)n[nH]c1N2` (stereo not given): the MIC in assay [1], in assay [2], in assay [3], in assay [4], in assay [5] and in assay [6] was more than 32 µg/mL each time. In addition, the MIC in assay [7], in assay [8] and in assay [9] was more than 32 µg/mL in each case.

As for `O=C1C(=O)c2ccccc2C2=C1C(c1ccccc1)c1c(-c3ccc([N+](=O)[O-])cc3)n[nH]c1N2` (stereo not given), the MIC in [1] worked out at 16 µg/mL (≈ 35.7 µM); in [2] it was 16 µg/mL (≈ 35.7 µM); in assay [3], 16 µg/mL (≈ 35.7 µM); in assay [4] it was 8 µg/mL (≈ 17.8 µM); in assay [5], 8 µg/mL (≈ 17.8 µM); in assay [6], 8 µg/mL (≈ 17.8 µM). The MIC in [7] was 16 µg/mL (≈ 35.7 µM); in assay [8], more than 32 µg/mL; in assay [9], 16 µg/mL (≈ 35.7 µM).

In the case of `Cc1ccc(-c2n[nH]c3nc4c(c(-c5ccc([N+](=O)[O-])cc5)c23)C(=O)C(=O)c2ccccc2-4)cc1`, the MIC in [1], in [2], in assay [3], in assay [4], in assay [5] and in assay [6] was more than 32 µg/mL each time. The minimal inhibitory concentration (MIC) in assay [7], in assay [8] and in assay [9] was more than 32 µg/mL throughout.

As for `COc1ccc(-c2c3c(nc4[nH]nc(-c5ccc(Cl)cc5)c24)-c2ccccc2C(=O)C3=O)cc1`, the MIC is 16 µg/mL (≈ 34.3 µM) in [1]; 16 µg/mL (≈ 34.3 µM) in [2]; more than 32 µg/mL in [3]; 8 µg/mL (≈ 17.2 µM) in assay [4]; 8 µg/mL (≈ 17.2 µM) in assay [5]; 16 µg/mL (≈ 34.3 µM) in assay [6]. In addition, the minimal inhibitory concentration (MIC) in [7] was 16 µg/mL (≈ 34.3 µM); in assay [8], more than 32 µg/mL; in [9] it was 16 µg/mL (≈ 34.3 µM).

`NNC(=O)c1ccncc1` [ISONIAZID]: the MIC in [1], in [2], in assay [3], in assay [4], in assay [5] and in [6] was more than 0.5 µg/mL in each case. In addition, the MIC in assay [7], in assay [8] and in assay [9] was 0.25 µg/mL (≈ 1.82 µM) in each case.

For the molecule `CO[C@H]1/C=C/O[C@@]2(C)Oc3c(C)c(O)c4c(O)c(c(/C=N/N5CCN(C)CC5)c(O)c4c3C2=O)NC(=O)/C(C)=C\C=C\[C@H](C)[C@H](O)[C@@H](C)[C@@H](O)[C@@H](C)[C@H](OC(C)=O)[C@@H]1C` [RIFAMPIN], the MIC is more than 0.5 µg/mL in assay [1]; more than 0.5 µg/mL in [2]; 0.125 µg/mL (≈ 0.152 µM) in [3]; more than 0.5 µg/mL in [4]; more than 0.5 µg/mL in [5]; more than 0.5 µg/mL in assay [6]. The minimal inhibitory concentration (MIC) was 0.125 µg/mL (≈ 0.152 µM) in [7], 0.125 µg/mL (≈ 0.152 µM) in [8] and more than 0.5 µg/mL in [9].

For the origin of these results see ChEMBL document CHEMBL3112512, “Microwave induced three-component synthesis and antimycobacterial activity of benzopyrazolo[3,4-b]quinolindiones” (2014).
